Results published in patent US6488967B1, “Gastric acid secretion” (Phytopharm PLC, priority 1999, dated 2002).
Values joined by “and” are separate entries in the source; they are usually repeats but may differ in a detail not shown here. Identical values can stand only once. “Also recorded” adds a separate entry of the source.

Assays:
[1] = test system: aspirin-induced damage to the stomach; assay: aspirin-induced damage to the stomach in the rat; format: in vivo; parameters: key to Gastric damage score (individual rat) / Gastric damage score, Mean: small haemorrhage 1, large haemorrhage 2, small ulcer 3, large ulcer 4 points; settings: for average reduction in gastric damage: vs control group; for Gastric damage score, Mean / Gastric damage score (individual rat): aspirin about 600 mg/kg orally, after 5 hours; for Gastric damage score, Mean: mean of eight rats; for Gastric damage score (individual rat): single animals
Description: Three groups each containing eight rats were given aspirin in 0.5% CMC orally at a dose of about 600 mg/kg (1.0 ml of 60 mg/ml). The first group (the control group) was additionally given 0.5% CMC. The second group was given compound P57AS3 at a dose rate of 100 mg/kg; and the third group (comparative group) was given cimetidine at a dose rate of 20 mg/kg. […] Damage was assessed on a scale in which each small haemorrhage scored one point; each large haemorrhage scored two points; each small ulcer scored three points; and each large ulcer scored four points.

M3 receptor [2] = assay: carbachol-induced contractions of the guinea pig trachea; settings: M3 receptor mediated, concentrations ≧1 μM
Description: (§1) Purified P57AS3 was examined for binding affinity to a variety of receptors, channels, and uptake sites in vitro. […], In isolated tissue studies, P57AS3 at concentrations ≦10 μM had no effect on the rate of spontaneously beating guinea pig right atria or on the force of contraction of electrically stimulated left atria. […] P57AS3 had no effect on resting tension of isolated guinea pig gallbladder, ileum or trachea, or on CCK octapeptide-induced contractions of the gallbladder (CCK-A receptor mediated), histamine induced contractions of the guinea pig ileum (H1 receptor mediated), or acetylcholine-induced contractions of the guinea pig ileum (M3 receptor mediated).

[3] = test system: spontaneously beating guinea pig right atria; assay: isolated tissue: spontaneously beating right atria; settings: concentrations ≦10 μM
Description: as §1

H1 receptor = biological target: T1, H1 receptor (Cavia porcellus, UniProt P31389); assay: histamine induced contractions of the guinea pig ileum; settings: H1 receptor mediated
T1 construct: histamine induced contractions of the guinea pig ileum (H1 receptor mediated); from tissue; host or cells: isolated guinea pig ileum
Description: as §1

M3 receptor [4] = biological target: T2, M3 receptor (Cavia porcellus, UniProt H0W1Z3); assay: acetylcholine-induced contractions of the guinea pig ileum; settings: M3 receptor mediated
T2 construct: acetylcholine-induced contractions of the guinea pig ileum (M3 receptor mediated); from tissue; host or cells: isolated guinea pig ileum
Description: as §1

[5] = test system: electrically stimulated left atria; assay: isolated tissue: electrically stimulated left atria; parameters: species or system guinea pig
Description: as §1

[6] = test system: isolated guinea pig ileum; assay: isolated tissue: resting tension of ileum
Description: as §1

CCK-A receptor = biological target: T3, CCK-A receptor (Cavia porcellus, UniProt Q63931); assay: CCK octapeptide-induced contractions of the gallbladder; parameters: species or system guinea pig; settings: CCK-A receptor mediated
T3 construct: P57AS3 had no effect on resting tension of isolated guinea pig gallbladder, ileum or trachea; from tissue; host or cells: isolated guinea pig gallbladder
T3 sequence (Q63931 1-430): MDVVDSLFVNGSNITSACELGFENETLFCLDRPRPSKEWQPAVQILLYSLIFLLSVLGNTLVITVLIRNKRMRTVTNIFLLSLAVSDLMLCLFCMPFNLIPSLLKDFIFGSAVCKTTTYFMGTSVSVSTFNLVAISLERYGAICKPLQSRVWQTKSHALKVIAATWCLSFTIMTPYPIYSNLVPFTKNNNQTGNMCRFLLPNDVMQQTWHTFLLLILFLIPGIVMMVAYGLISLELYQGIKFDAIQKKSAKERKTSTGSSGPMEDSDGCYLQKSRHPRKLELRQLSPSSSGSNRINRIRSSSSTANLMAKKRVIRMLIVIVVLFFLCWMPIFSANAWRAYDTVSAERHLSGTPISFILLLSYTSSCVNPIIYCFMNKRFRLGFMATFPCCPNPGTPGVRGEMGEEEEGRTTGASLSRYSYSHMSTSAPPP
Description: as §1

[7] = test system: isolated guinea pig trachea; assay: isolated tissue: resting tension of trachea
Description: as §1

[8] = test system: isolated guinea pig gallbladder; assay: isolated tissue: resting tension of gallbladder
Description: as §1

gastric acid secretion = gastric acid secretion in the pylorus-ligated rat; format: in vivo
Description: The effect of both the spray dried extract (sap from Hoodia gordonii)-referred to hereinafter as […]-and the purified compound P57AS3 were examined for effects on gastric acid secretion in the pylorus-ligated rat. Male Sprague-Dawley derived CD rats, 175-230 g, were used. On the day before the test, rats were outfitted with stainless steel tail cups to prevent coprophagy, housed individually with water allowed ad lib, and fasted overnight (18 hr). In one test the […] (5 or 50 mg/kg), or cimetidine (10 mg/kg) or vehicle (water) was orally administered to the rats immediately before fasting. Water was removed 30 minutes prior to ligation on the morning of the test. […] In a second experiment, purified compound P57AS3 was administered intraduodenally (i.d.) at 1 or 10 mg/kg at the time of the pylorus ligation. In this experiment with intraduodenal administration of P57AS3, vehicle (DMSO), cimetidine (10 mg/kg) or P57AS3 (1 or 10 mg/kg) was administered immediately after ligation. The incisions were then closed with staples. In the experiments with subcutaneous administration of P57, vehicle (DMSO), cimetidine (10 mg/kg) or P57, 10 or 30 mg/kg were injected subcutaneously in the nape of the neck immediately after the incisions were closed. Two hours after ligation, the rats were killed, the contents of each stomach collected and cleaned by centrifugation (30 minutes at 2000×g), and the volume of gastric fluid in each stomach was determined. Using a Radiometer pH meter and autotitrator, the pH and acid concentration of each gastric sample was determined by titration to pH 7 with 0.1N NaOH. Results are expressed as μeq/hr/100 g (body weight) and % vehicle control.

[9] = 10 mg/kg sc, 1 of 3 experiments

T1 sequence (P31389 whole entry): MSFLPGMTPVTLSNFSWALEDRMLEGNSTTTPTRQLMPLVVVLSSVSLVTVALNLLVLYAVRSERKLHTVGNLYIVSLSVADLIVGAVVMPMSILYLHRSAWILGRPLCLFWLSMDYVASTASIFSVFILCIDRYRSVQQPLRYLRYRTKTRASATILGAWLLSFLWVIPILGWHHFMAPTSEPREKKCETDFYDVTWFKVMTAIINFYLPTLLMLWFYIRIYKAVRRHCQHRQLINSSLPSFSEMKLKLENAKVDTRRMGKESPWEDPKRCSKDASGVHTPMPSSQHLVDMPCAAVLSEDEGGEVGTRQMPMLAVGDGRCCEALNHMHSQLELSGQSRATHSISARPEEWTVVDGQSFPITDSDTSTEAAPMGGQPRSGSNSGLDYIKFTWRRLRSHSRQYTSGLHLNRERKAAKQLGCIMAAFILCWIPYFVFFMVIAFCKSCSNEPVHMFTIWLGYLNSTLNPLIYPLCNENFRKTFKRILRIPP
T2 sequence (H0W1Z3 1-590): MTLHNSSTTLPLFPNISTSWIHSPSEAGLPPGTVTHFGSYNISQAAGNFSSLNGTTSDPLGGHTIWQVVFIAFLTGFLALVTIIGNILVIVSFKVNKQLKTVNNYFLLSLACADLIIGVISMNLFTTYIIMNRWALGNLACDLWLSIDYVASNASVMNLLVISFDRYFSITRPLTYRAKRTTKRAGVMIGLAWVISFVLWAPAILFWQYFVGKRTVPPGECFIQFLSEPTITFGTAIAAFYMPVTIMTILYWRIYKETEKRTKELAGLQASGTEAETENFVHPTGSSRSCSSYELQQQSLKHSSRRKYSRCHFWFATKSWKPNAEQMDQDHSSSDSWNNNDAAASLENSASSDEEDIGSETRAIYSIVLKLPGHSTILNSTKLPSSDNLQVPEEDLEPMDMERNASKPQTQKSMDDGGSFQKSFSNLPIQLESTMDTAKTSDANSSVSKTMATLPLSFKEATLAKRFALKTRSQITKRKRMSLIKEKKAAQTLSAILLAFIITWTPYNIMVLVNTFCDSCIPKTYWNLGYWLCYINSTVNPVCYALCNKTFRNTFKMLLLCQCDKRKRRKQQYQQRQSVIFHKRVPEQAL

## C/C=C(\C)C(=O)O[C@@H]1C[C@H]2[C@@H](CC=C3C[C@@H](O[C@H]4C[C@H](OC)[C@H](O[C@H]5C[C@H](OC)[C@H](O[C@@H]6O[C@H](C)[C@@H](O)[C@H](OC)[C@H]6O)[C@@H](C)O5)[C@@H](C)O4)CC[C@@]32C)[C@@]2(O)CC[C@H](C(C)=O)[C@@]12C [P57AS3, 3-O-[-β-D-thevetopyranosyl-(1→4)-β-D-cymaropyranosyl-(1→4)-β-D-cymaropyranosyl]-12β-O-tigloyloxy-14-hydroxy-14β-pregn-5-en-20-one]
[1]; 100 mg/kg
  average reduction in gastric damage: 91.5%
[1]; oral 100 mg/kg
  Gastric damage score, Mean: 0.63
  Gastric damage score (individual rat): 0 (6×) and 3 and 2
M3 receptor [2]
  effect on carbachol-induced contractions of the trachea: noncompetitively inhibited
[3]
  effect on the rate of spontaneously beating right atria: no effect
H1 receptor
  effect on histamine induced contractions of the ileum: no effect
M3 receptor [4]
  effect on acetylcholine-induced contractions of the ileum: no effect
[5]; concentrations of 1 μM and higher
  effect on basal tension of electrically stimulated left atria: intermittent and transient elevations
[5]; concentrations ≦10 μM
  effect on the force of contraction of electrically stimulated left atria: no effect
[6]
  effect on resting tension of ileum: no effect
CCK-A receptor
  effect on CCK octapeptide-induced contractions of the gallbladder: no effect
[7]
  effect on resting tension of trachea: no effect
[8]
  effect on resting tension of gallbladder: no effect
Gastric acid secretion; 1 mg/kg i.d. at the time of pylorus ligation
  effect on gastric acid secretion: no effect
Gastric acid secretion; 10 mg/kg i.d. at the time of pylorus ligation
  decrease of acid secretion (acid output): 88%
Gastric acid secretion; [9]
  effect on gastric acid secretion: significant decrease
  reduction of gastric acid secretion: 43%
Gastric acid secretion; 10 mg/kg sc, 2 of 3 experiments
  effect on gastric acid output: not significantly different from vehicle-treated controls; also recorded: no effect
Gastric acid secretion; 30 mg/kg sc, one experiment
  effect on gastric acid output: not significantly different from vehicle-treated controls; also recorded: no effect
Gastric acid secretion; Exp. II, 1 mg/kg id
  Acid Output % Control mean ± sd: 109.0 ± 37.8 % Control
Gastric acid secretion; Exp. II, 10 mg/kg id
  Acid Output % Control mean ± sd: 12.4 ± 1.1 % Control
Gastric acid secretion; Exp. III, 10 mg/kg sc
  Acid Output % Control mean ± sd: 48.9 ± 29.2 % Control
Gastric acid secretion; Exp. IV, 10 mg/kg sc
  Acid Output % Control mean ± sd: 74.0 ± 38.0 % Control
Gastric acid secretion; Exp. V, 10 mg/kg sc
  Acid Output % Control mean ± sd: *57.1 ± 19.8 % Control
Gastric acid secretion; Exp. VI, 30 mg/kg sc
  Acid Output % Control mean ± sd: 63.7 ± 17.3 % Control

## CN/C(=N/CCSCc1nc[nH]c1C)NC#N [Cimetidine, cimetidine, reference compound]
[1]; 20 mg/kg
  average reduction in gastric damage: 93.2%
[1]; oral 20 mg/kg
  Gastric damage score, Mean: 0.50
  Gastric damage score (individual rat): 0 (7×) and 4
